Results as given in patent US20070032521A1, “Use of c-kit inhibitors for treating type II diabetes” (AB Science, priority 2003, published 2007).

Legend:
[1] = target: T1, purified intracellular domain of c-kit (Homo sapiens, UniProt P10721); assay: in vitro TK inhibition assay (ELISA, phosphorylation of tyrosine containing target peptide); format: biochemical; conditions: purified intracellular domain of c-kit expressed in baculovirus
T1 construct: purified intracellular domain of c-kit expressed in baculovirus; made in house
Description: in vitro TK Inhibition Assays
Experiments were performed using purified intracellular domain of c-kit expressed in baculovirus. Estimation of the kinase activity was assessed by the phosphoiylation of tyrosine containing target peptide estimated by established ELISA assay.

male db/db mice = assay: Effect of c-kit inhibitors on serum glucose, insulin, triglycerides, cholesterol and NEFA levels in db/db mice; format: in vivo, mouse
From the text: Effect of different c-kit inhibitors on serum glucose, insulin, triglycerides, cholesterol and non esterified fatty acids levels in db/db mice
The objective of this study is to assess the effects of different c-kit inhibitors on serum glucose, insulin, triglycerides, cholesterol and non esterified fatty acids levels in male db/db mice dosed orally, once-a-day, for 5 days.
30 male 9/11 weeks old C57BL/Ks J Rj-db (db/db) mice (Janvier, France or Harlan, France), weighing in the target range of 30 to 50 g, will be included in this study.
One to three days before beginning the treatments (T0), mice will be weighed and blood samples will be collected through the retro-orbital plexus under isoflurane anesthesia. Blood samples will be kept at room temperature for 5 to 10 min to form a spontaneous clot, then put in ice until they are centrifuged at 3500×g for 10-15 min at 4° C. An aliquot of serum will be used for measuring glucose levels.
Six groups of 5 mice will be formed with respect to homogeneous glycemia values by using a randomization table. Animal showing glycemia below 20 mM will be excluded from the study.
From T1 to T5, the mice will be weighed and dosed once daily for 5 consecutive days at constant time.
At T5, 2 hours after the last administration, blood samples will be collected through the retro-orbital plexus under isoflurane anesthesia. Blood samples will be kept at room temperature for 5 to 10 min to form a spontaneous clot, then put in ice until they are centrifuged at 3500×g for 10 min at 4° C. Serum will be aliquoted and frozen at −20° C. until use. After blood collection, the mice will be euthanized by cervical dislocation.
Serum glucose and triglycerides levels will be determined using the Synchron C×4 analyzer. Serum non esterified fatty acids levels will be measured manually using a colorimetric method, and insulin levels determined by ELISA.
The results will be expressed as mean±SEM: • Glucose levels (mM) at T5 • Insulin levels (nM) at T5 • Triglycerides levels (mM) at T5 • Non esterified fatty acids levels (mM) at T5
For each parameter, a % of effect will be calculated according to following formula: ((vehicle group−test group)/vehicle group)*100
Statistical analysis will consist in a one-way analysis of variance followed by multiple comparisons versus the vehicle group (Dunnett's test). In case the equal variance test fails, a Kruskall-Wallis one-way analysis of variance on ranks will be proposed. A difference will be considered significant for p<0.05.

[2] = as compared to vehicle, 10 mg/kg p.o. for 5 days
[3] = serum, male db/db mice, 10 mg/kg p.o. once daily for 5 days, T5, mean ± SEM, n = 5

T1 sequence (P10721 546-976 limits assumed): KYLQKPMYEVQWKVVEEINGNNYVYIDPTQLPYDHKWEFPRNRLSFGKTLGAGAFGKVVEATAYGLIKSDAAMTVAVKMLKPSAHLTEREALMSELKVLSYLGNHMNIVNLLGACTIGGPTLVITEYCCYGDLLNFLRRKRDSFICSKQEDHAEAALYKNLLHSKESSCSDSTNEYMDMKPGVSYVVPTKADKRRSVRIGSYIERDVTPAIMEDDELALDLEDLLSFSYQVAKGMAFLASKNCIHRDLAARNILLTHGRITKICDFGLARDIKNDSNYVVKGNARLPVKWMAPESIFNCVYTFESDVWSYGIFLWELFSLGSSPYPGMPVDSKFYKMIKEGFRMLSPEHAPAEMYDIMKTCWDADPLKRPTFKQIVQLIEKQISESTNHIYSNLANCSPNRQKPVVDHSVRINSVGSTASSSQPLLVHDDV

Cc1ccc(NC(=O)Nc2ccc(F)cc2)cc1Nc1nc(-c2cccnc2)cs1 [Compound 012, 1-(4-Fluoro-phenyl)-3-[4-methyl-3-(4-pyridin-3-yl-thiazol-2-ylamino)-phenyl]-urea]
IC50 [1]: < 10 µM

Cc1ccc(NC(=O)N(C(=O)NC2CCCCC2)C2CCCCC2)cc1Nc1nc(-c2cccnc2)cs1 [Compound 016, 1-Cyclohexyl-1-(N-Cyclohexyl-formamide)-3-[4-methyl-3-(4-pyridin-3-yl-thiazol-2-ylamino)-phenyl]-urea]
IC50 [1]: < 10 µM

Cc1ccc(NC(=O)Nc2ccc(OC(F)F)cc2)cc1Nc1nc(-c2cccnc2)cs1 [Compound 021, 1-(4-Difluoromethoxy-phenyl)-3-[4-methyl-3-(4-pyridin-3-yl-thiazol-2-ylamino)-phenyl]-urea]
IC50 [1]: < 10 µM

Cc1ccc(NC(=O)Nc2cccc(F)c2)cc1Nc1nc(-c2cccnc2)cs1 [Compound 025, 1-(3-Fluoro-phenyl)-3-[4-methyl-3-(4-pyridin-3-yl-thiazol-2-ylamino)-phenyl]-urea]
IC50 [1]: < 10 µM
melting point: 210 to 215 °C

Cc1ccc(NC(=O)Nc2ccc(C)c(Nc3nc(-c4cccnc4)cs3)c2)cc1 [Compound 026, 1-[4Methyl-3-(4-pyridin-3-yl-thiazol-2-ylamino)-phenyl]-3-p-tolyl-urea]
IC50 [1]: < 10 µM
melting point: 210 to 215 °C

Cc1ccc(NC(=O)c2ccc(NS(=O)(=O)c3cccs3)cc2)cc1Nc1nc(-c2cccnc2)cs1 [Compound 044, N-[4Methyl-3-(4-pyridin-3-yl-thiazol-2-ylamino)-phenyl]-4-(thiophene-2-sulfonylamino)-benzamide]
melting point: 230 to 233 °C

Cc1ccc(NC(=O)c2cccc(F)c2)cc1Nc1nc(-c2cccnc2)cs1 [Compound 045, 3-Fluoro-N-[4-methyl-3-(4-pyridin-3-yl-thiazol-2-ylamino)-phenyl]-benzamide]
melting point: 184 to 186 °C

Cc1ccc(NC(=O)c2ccc(-c3ccncc3)cc2)cc1Nc1nc(-c2cccnc2)cs1 [Compound 046, N-[4-Methyl-3-(4-pyridin-3-yl-thiazol-2-ylamino)-phenyl]-4-pyridin-4-yl-benzamide]
melting point: 254 to 256 °C

Cc1ccc(NC(=O)c2ccc(N(C)C)cc2)cc1Nc1nc(-c2cccnc2)cs1 [Compound 047, 4-Dimethylamino-N-[4-methyl-3-(4-pyridin-3-yl-thiazol-2-ylamino)-phenyl]-benzamide]
IC50 [1]: < 10 µM

Cc1ccc(F)c(C(=O)Nc2ccc(C)c(Nc3nc(-c4cccnc4)cs3)c2)c1 [Compound 048, 2-Fluoro-5-methyl-N-[4-methyl-3-(4-pyridin-3-yl-thiazol-2-ylamino)-phenyl]-benzamide]
IC50 [1]: < 10 µM
melting point: 103 to 106 °C

Cc1ccc(NC(=O)c2ccc(C(C)(C)C)cc2)cc1Nc1nc(-c2cccnc2)cs1 [Compound 049, 4-tert-Butyl-N-[4-methyl-3-(4-pyridin-3-yl-thiazol-2-ylamino)-phenyl]-benzamide]
IC50 [1]: < 10 µM
melting point: 145 to 150 °C

Cc1ccc(NC(=O)c2ccc3c(c2)OCO3)cc1Nc1nc(-c2cccnc2)cs1 [Compound 051]
IC50 [1]: < 10 µM
melting point: 130 to 132 °C

Cc1ccc(NC(=O)c2cccc(OCCN3CCOCC3)c2)cc1Nc1nc(-c2cccnc2)cs1 [Compound 052]
IC50 [1]: < 10 µM
melting point: 75 to 80 °C

Cc1ccc(NC(=O)c2ccc(CNC(=O)OC(C)(C)C)cc2)cc1Nc1nc(-c2cccnc2)cs1 [Compound 073, {4-[4-Methyl-3-(4-pyridin-3-yl-thiazol-2-ylamino)-phenylcarbamoyl]-benzyl}-carbamic acid tert-butyl ester]
IC50 [1]: < 10 µM

Cc1ccc(NC(=O)c2ccc(CN3CCN(C)CC3)c(C(F)(F)F)c2)cc1Nc1nc(-c2cccnc2)cs1 [Compound 075]
IC50 [1]: < 10 µM
melting point: 118 to 120 °C

Cc1ccc(NC(=O)c2ccc(CN3CCN(C)CC3)c(Br)c2)cc1Nc1nc(-c2cccnc2)cs1 [Compound 078, 3-Bromo-4-(4-methyl-piperazin-1-ylmethyl)-N-[4-methyl-3-(4-pyridin-3-yl-thiazol-2-ylamino)-phenyl]-benzamide]
IC50 [1]: < 10 µM

Cc1ccc(NC(=O)c2ccc(C(C)N3CCN(C)CC3)cc2)cc1Nc1nc(-c2cccnc2)cs1 (centres unmarked) [Compound 082]
IC50 [1]: < 10 µM
melting point: 153 to 155 °C

Cc1cncc(-c2csc(Nc3cc(NC(=O)c4ccc(CN5CCN(C)CC5)cc4)ccc3C)n2)c1 [Compound 084, N-{4-Methyl-3-[4-(5-methyl-pyridin-3-yl)-thiazol-2-ylamino]-phenyl}-4-(4-methyl-piperazin-1-ylmethyl)-benzamide]
IC50 [1]: < 10 µM

Cc1ccc(NC(=O)c2cc(Br)c(CNCCCN3CCOCC3)c(Br)c2)cc1Nc1nc(-c2cccnc2)cs1 [Compound 087, 3,5-Dibromo-N-[4-methyl-3-(4-pyridin-3-yl-thiazol-2-ylamino)-phenyl]-4-[(3-morpholin-4-yl-propylamino)-methyl]-benzamide]
IC50 [1]: < 10 µM

Cc1ccc(NC(=O)c2cccc(N(C)C)c2)cc1Nc1nc(-c2cccnc2)cs1 [Compound 088, 3-Dimethylamino-N-[4-methyl-3-(4-pyridin-3-yl-thiazol-2-ylamino)-phenyl]-benzamide]
IC50 [1]: < 10 µM
melting point: 197 to 198 °C

Cc1ccc(NC(=O)c2cccc(N3CCN(C)CC3)c2)cc1Nc1nc(-c2cccnc2)cs1 [Compound 089, 3-(4-Methyl-piperazin-1-yl)-N-[4-methyl-3-(4-pyridin-3-yl-thiazol-2-ylamino)-phenyl]-benzamide]
IC50 [1]: < 10 µM

Cc1ccc(NC(=O)c2cccc(N3CCOCC3)c2)cc1Nc1nc(-c2cccnc2)cs1 [Compound 090, N-[4-Methyl-3-(4-pyridin-3-yl-thiazol-2-ylamino)-phenyl]-3-morpholin-4-yl-benzamide]
IC50 [1]: < 10 µM
melting point: 247 to 248 °C

Cc1ccc(NC(=O)CCCN2CCOCC2)cc1Nc1nc(-c2cccnc2)cs1 [Compound 096, N-[4-Methyl-3-(4-pyridin-3-yl-thiazol-2-ylamino)-phenyl]-4-morpholin-4-yl-butyramide]
IC50 [1]: < 10 µM
melting point: 116 to 120 °C

CN(CCOc1ccc(CC2SC(=O)NC2=O)cc1)c1ccccn1 (centres unmarked) [Rosiglitazone, rosiglitazone]
Cholesterol Effect (%) (male db/db mice; [2]): 19%
Glucose Effect (%) (male db/db mice; [2]): 59%
Insulin Effect (%) (male db/db mice; [2]): 77%
NEFA Effect (%) (male db/db mice; [2]): 63%
Triglycerides Effect (%) (male db/db mice; [2]): 71%
NEFA (male db/db mice; serum non esterified fatty acids, male db/db mice, 10 mg/kg p.o. once daily for 5 days, T5, mean ± SEM, n = 5): 0.31 ± 0.061 mM
Cholesterol (male db/db mice; [3]): 2.74 ± 0.47 mM
Glucose (male db/db mice; [3]): 11.25 ± 2.65 mM
Insulin (male db/db mice; [3]): 0.82 ± 0.27 nM
Triglycerides (male db/db mice; [3]): 0.46 ± 0.10 mM
